In brackets after ≈: the same amount, converted by molar mass.
What was measured:
[1] = system: cell lines NIH3T3, HepG2, and Raw 264.7 contaminated with mycoplasma; experiment: Removing mycoplasma from contaminated cell lines with AM3, PCR with mycoplasma diagnosis kit; format: cell-based; details: 20 μg/ml, two 3-day cultures; NIH3T3, HepG2, Raw 264.7
Description: Various cell lines constructed in laboratories of colleges located in Seoul were obtained. The obtained cell lines were cultured in a DMEM (GIBCO BRL, Cat. No. 12800-058) for 3 days, and then the cells were harvested. PCR was performed thereon with a mycoplasma diagnosis kit (Promokine, Germany; Cellsafe Co., Ltd., Korea) according to the enclosed protocol. The resulting PCR products were electrophoresed on a 1% agarose gel to measure the mycoplasma contamination. As a result, it was confirmed that three cell strains, i.e., NIH3T3, HepG2, Raw 264.7 cell lines, were infected with mycoplasma (see FIG. 1).
(§1) The cell lines NIH3T3, HepG2, and Raw 264.7, which were confirmed to be contaminated with mycoplasma, were each inoculated at a concentration of 1×10^6 cells on a T-75 culture flask (NUNC, Cat. No. 156367). DMEM (GIBCO BRL, Cat. No. 12800-058) containing 10% or less of serum (GIBCO BRL, Cat. No. 10082-147) was added thereto, followed by culturing for 3 days.
as §1, with “thereto and then 20 μg/ml of amphidinol” for “thereto, followed by culturing for”, “(AM3) was added thereto. […]” for “days.”

[2] = system: Mycoplasma hyorhinis (ATCC17981s); experiment: Inhibition of Mycoplasma hyorhinis cultured in PPLO medium, INT colour change; format: cell-based; details: Mycoplasma, read-out: concentration showing excellent inhibitory activity against mycoplasma
Description: In order to evaluate the effects of the extract and amphidinol derivatives prepared in Example 1 on mycoplasma, Mycoplasma hyorhinis (ATCC17981s) was cultured in a PPLO medium (pleuropneumonia-like organism basal medium, Difco Laboratories, Detroit, USA) supplemented with a fetal calf serum and a yeast extract, according to the method disclosed by Hayflick (Hayflick, 1965, Tex. Rep. Bio. Med. 23, 285-303). That is, 100 μl of the medium was placed on each well of a 96-well plate, and a sample (that is, the extract and amphidinol derivatives prepared in Example 1) was added to each well, such that each sample was diluted from 2 times (i.e., 2× diluted) to 12 times (i.e., 12× diluted), the starting concentration being 1 mg/ml. Mycoplasma was cultured in a PPLO medium (pleuropneumonia-like organism basal medium, Difco Laboratories, Detroit, USA) supplemented with a fetal calf serum and a yeast extract, at a temperature of 37° C. for 48 hours. The resulting culture medium was diluted with the PPLO medium at a ratio of 1:10. 100 μl of the diluted culture medium was added to each well of the 96-well plate, so that the total amount of each well was 200 μl. After culturing at a temperature of 37° C. for 24 hours, 40 μl of 0.2 mg/ml INT (p-iodonitrotetrazolium) was added thereto and culturing was further performed for 4 hours. If the medium turns pink following the culturing, the color change means that metabolism of mycoplasma actively occurs. Also, if mycoplasma is suppressed by the sample, the medium turned pink less.

C=C/C=C/CC/C=C/C=C/C=C/CC/C=C/C(O)C(O)C1OC(C(O)C(O)C(=C)CCC(O)C2CC(O)C(O)C(C(O)C(O)/C=C(\C)CCC(O)CC(O)C(O)C(C)CC(O)C(O)CCCCCC(O)CCCC(O)/C=C/CC(O)/C=C/CC(O)CO)O2)CC(O)C1O (centres unmarked) [AM3, amphidinol 3]
mycoplasma contamination [1]: completely removed | IC50 [2]: ~0.25 µg/mL (≈ 0.188 µM)

From patent US8815565B2, “Method for culturing mycoplasma contamination-free cells and method for removing mycoplasma contamination of cells” (Cellsafe Co., Ltd., priority 2010, dated 2014)
